This passage reports Kd results from patent US20050282743A1, “Molecular interactions in cells” (Arbor Vita Corporation, priority 2001, published 2005).

Like-named read-outs stand apart in the source and are kept apart here. Peptide text beside a SMILES is read from it. * marks the point of attachment. Biotin = O=C1N[C@H]2[C@H](CS[C@H]2CCCCC(=O)*)N1

The target of the experiment is T1, PDZ-domain polypeptide (GST/PDZ fusion protein) (Homo sapiens, UniProt Q12923).
T1 construct: made in house; host or cells: E. coli (DH5alpha, BL21 or JM109)
T1 sequence (Q12923 whole entry, the tested form may be a part): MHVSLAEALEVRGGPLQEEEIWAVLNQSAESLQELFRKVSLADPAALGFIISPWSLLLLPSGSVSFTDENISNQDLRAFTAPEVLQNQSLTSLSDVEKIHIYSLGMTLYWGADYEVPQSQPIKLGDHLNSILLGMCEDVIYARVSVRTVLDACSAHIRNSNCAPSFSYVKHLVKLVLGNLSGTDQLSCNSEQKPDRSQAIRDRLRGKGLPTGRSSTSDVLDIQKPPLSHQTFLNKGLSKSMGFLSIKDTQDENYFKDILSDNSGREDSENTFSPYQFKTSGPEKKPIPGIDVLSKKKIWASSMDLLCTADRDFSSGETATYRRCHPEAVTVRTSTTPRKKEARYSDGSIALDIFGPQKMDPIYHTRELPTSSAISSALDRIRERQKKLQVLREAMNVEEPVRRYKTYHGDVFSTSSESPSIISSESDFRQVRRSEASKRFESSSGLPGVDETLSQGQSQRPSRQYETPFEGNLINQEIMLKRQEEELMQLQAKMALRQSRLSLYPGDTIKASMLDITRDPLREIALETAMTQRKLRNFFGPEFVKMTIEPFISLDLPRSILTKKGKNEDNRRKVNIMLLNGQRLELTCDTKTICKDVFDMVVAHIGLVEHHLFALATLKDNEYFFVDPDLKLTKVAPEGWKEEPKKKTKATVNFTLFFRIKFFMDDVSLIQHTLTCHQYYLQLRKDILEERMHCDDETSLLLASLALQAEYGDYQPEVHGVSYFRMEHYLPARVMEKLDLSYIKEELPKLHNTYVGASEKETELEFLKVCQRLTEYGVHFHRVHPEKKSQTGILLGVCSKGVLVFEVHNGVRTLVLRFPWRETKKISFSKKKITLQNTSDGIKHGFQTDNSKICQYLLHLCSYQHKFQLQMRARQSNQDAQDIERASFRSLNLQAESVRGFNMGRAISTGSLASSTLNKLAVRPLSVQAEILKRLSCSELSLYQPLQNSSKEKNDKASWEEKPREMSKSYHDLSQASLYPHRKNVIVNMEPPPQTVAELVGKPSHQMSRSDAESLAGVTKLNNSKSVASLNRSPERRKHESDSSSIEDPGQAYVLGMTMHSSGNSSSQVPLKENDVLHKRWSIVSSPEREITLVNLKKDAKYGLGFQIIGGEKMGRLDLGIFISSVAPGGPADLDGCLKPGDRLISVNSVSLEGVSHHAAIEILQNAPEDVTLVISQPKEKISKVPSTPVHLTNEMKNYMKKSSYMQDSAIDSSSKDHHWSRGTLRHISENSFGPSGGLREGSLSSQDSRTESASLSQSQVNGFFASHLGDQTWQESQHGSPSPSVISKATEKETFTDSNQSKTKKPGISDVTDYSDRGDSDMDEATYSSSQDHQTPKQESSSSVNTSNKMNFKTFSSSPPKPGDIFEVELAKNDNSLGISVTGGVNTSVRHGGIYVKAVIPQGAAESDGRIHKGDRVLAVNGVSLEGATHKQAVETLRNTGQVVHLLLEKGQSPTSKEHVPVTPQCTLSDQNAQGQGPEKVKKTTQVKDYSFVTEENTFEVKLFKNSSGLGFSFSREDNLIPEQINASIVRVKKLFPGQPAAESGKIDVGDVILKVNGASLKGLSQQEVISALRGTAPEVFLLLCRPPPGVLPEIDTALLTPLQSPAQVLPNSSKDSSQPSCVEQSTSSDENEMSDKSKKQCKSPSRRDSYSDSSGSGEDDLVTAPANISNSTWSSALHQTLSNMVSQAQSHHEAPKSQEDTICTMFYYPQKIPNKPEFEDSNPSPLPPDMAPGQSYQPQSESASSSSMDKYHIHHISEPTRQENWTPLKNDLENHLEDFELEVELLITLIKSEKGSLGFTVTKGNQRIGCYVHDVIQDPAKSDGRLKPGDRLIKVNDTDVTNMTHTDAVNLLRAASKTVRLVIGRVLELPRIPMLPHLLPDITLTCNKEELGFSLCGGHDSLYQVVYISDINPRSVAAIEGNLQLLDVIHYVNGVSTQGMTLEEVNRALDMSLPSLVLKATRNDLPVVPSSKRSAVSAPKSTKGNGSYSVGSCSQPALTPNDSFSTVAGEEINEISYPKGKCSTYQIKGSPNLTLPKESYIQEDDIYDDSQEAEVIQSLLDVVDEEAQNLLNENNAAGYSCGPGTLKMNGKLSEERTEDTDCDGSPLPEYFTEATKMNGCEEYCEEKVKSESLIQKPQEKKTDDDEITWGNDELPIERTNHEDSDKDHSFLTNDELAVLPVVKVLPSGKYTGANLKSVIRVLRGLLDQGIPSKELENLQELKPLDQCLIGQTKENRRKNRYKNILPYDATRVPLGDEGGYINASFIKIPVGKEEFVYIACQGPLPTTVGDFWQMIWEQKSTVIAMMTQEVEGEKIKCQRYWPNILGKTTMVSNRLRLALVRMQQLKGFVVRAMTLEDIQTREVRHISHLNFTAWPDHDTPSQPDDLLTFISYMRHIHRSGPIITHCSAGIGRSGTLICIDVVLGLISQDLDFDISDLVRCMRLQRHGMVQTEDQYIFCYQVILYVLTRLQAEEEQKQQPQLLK
Description: Apparent affinity (Kd) by titration of PL peptide in the G assay. The experiment is classed as binding. Put shortly:
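A fixed concentration of GST/PDZ fusion protein, 5 ug/ml by default, was mixed in solution with increasing labeled PL peptide (e.g. 0.1 uM-1 mM). Reaction times ranged from 10 minutes to 2 days at 4-37° C. Complexes were separated from free peptide and detected via the label as in the G assay, apparent affinity coming from the saturating concentration.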

In the case of `CC(C)C[C@H](NC(=O)[C@H](CC(C)C)NC(=O)[C@@H](NC(=O)[C@H](CC(=O)O)NC(=O)CCCC[C@@H]1SC[C@@H]2NC(=O)N[C@@H]21)[C@@H](C)O)C(=O)N[C@@H](CC(C)C)C(=O)N[C@H](C(=O)N[C@@H](CCC(=O)O)C(=O)N[C@@H](CC(N)=O)C(=O)N[C@@H](CCC(=O)O)C(=O)NCC(=O)N[C@@H](CC(=O)O)C(=O)N[C@@H](CCCCN)C(=O)N[C@H](C(=O)N[C@@H](CCC(=O)O)C(=O)N[C@@H](CCC(=O)O)C(=O)N[C@@H](CCC(N)=O)C(=O)N[C@H](C(=O)N[C@@H](CO)C(=O)N[C@@H](Cc1ccc(O)cc1)C(=O)N[C@H](C(=O)O)C(C)C)C(C)C)[C@@H](C)O)[C@@H](C)O` [5H2B_HUMAN] (Biotin-DTLLLTENEGDKTEEQVSYV-OH; C-terminus assumed), the Kd (PDZ PTPL-1, PDZ Domain 2, read-out: Peptide Optimal Conc (Kd by titration of the PL peptide)) worked out at 200 nM.
Consider `CC[C@H](C)[C@H](NC(=O)[C@H](Cc1ccc(O)cc1)NC(=O)[C@H](CC(C)C)NC(=O)[C@H](CCC(N)=O)NC(=O)[C@H](Cc1c[nH]cn1)NC(=O)[C@H](CO)NC(=O)[C@H](C)NC(=O)[C@H](CC(C)C)NC(=O)[C@@H](NC(=O)[C@H](CC(=O)O)NC(=O)[C@H](CCSC)NC(=O)[C@H](Cc1ccccc1)NC(=O)[C@@H]1CCCN1C(=O)[C@H](CCCNC(=N)N)NC(=O)[C@@H](NC(=O)[C@H](CC(C)C)NC(=O)[C@H](CC(N)=O)NC(=O)[C@H](CC(=O)O)NC(=O)[C@@H](NC(=O)[C@H](CO)NC(=O)CCCC[C@@H]1SC[C@@H]2NC(=O)N[C@@H]21)[C@@H](C)O)C(C)C)[C@@H](C)O)C(=O)O` [presenilin-2] (Biotin-STDNLVRPFMDTLASHQLYI-OH; C-terminus assumed), for which, under “PDZ PTPL-1, PDZ Domain 4, titration of the PL peptide, read-out: Peptide Optimal Conc (Kd, dissociation constant)”, the Kd was 8000 nM.
For `CC(C)C[C@H](NC(=O)[C@H](Cc1c[nH]c2ccccc12)NC(=O)[C@H](Cc1c[nH]cn1)NC(=O)[C@H](CCCNC(=N)N)NC(=O)[C@H](CC(C)C)NC(=O)[C@@H](NC(=O)[C@H](Cc1ccccc1)NC(=O)[C@H](CCC(N)=O)NC(=O)[C@H](CCCNC(=N)N)NC(=O)[C@@H](NC(=O)[C@H](CCC(=O)O)NC(=O)CNC(=O)[C@H](CCCNC(=N)N)NC(=O)[C@H](CC(=O)O)NC(=O)[C@@H](NC(=O)[C@H](CC(C)C)NC(=O)[C@H](CCC(=O)O)NC(=O)[C@H](CCCNC(=N)N)NC(=O)CCCC[C@@H]1SC[C@@H]2NC(=O)N[C@@H]21)C(C)C)C(C)C)[C@@H](C)O)C(=O)N[C@@H](CCCCN)C(=O)N[C@H](C(=O)O)C(C)C` [Dopamine transporter (Na+-dependent)] (Biotin-RELVDRGEVRQFTLRHWLKV-OH; C-terminus assumed), where the note is “PDZ PTPL-1, PDZ Domain 4, read-out: Peptide Optimal Conc (Kd by titration of the PL peptide)”, the Kd was determined as 400 nM.
As to `CC[C@H](C)[C@H](NC(=O)[C@H](CCCCN)NC(=O)[C@@H](NC(=O)[C@H](CO)NC(=O)[C@@H]1CCCN1C(=O)[C@H](Cc1ccccc1)NC(=O)[C@@H](NC(=O)[C@@H](NC(=O)[C@H](CCCNC(=N)N)NC(=O)[C@H](CCC(=O)O)NC(=O)[C@H](CC(C)C)NC(=O)[C@H](CC(C)C)NC(=O)[C@H](CC(C)C)NC(=O)[C@@H](NC(=O)CNC(=O)[C@@H](NC(=O)CCCC[C@@H]1SC[C@@H]2NC(=O)N[C@@H]21)C(C)C)[C@@H](C)O)C(C)C)[C@@H](C)CC)C(C)C)C(=O)N[C@@H](C)C(=O)N[C@H](C(=O)N[C@@H](CC(C)C)C(=O)N[C@H](C(=O)O)C(C)C)[C@@H](C)O` [Adenovirus E4 Type9], where the note is “PDZ PTPL-1, PDZ Domain 2, Protein Optimal Conc 5, read-out: Peptide Optimal Conc (Kd by titration of the PL peptide)”, the Kd came to 200 nM.
